Measured values taken from ChEMBL document CHEMBL4311991, “Design, synthesis, and biological evaluation of 1-substituted -2-aryl imidazoles targeting tubulin polymerization as potential anticancer agents” (Eur J Med Chem, 2019).

Experiments:
HT-29 = test: Antiproliferative activity against human HT-29 cells assessed as reduction in cell viability after 72 hrs by MTT assay; format: functional, cell-based; conditions: HT-29, 72 h
MDA-MB-468 = test: Antiproliferative activity against human MDA-MB-468 cells assessed as reduction in cell viability after 72 hrs by MTT assay; format: functional, cell-based; conditions: MDA-MB-468, 72 h
T47D = test: Antiproliferative activity against human T47D cells assessed as reduction in cell viability after 72 hrs by MTT assay; format: functional, cell-based
HeLa = test: Antiproliferative activity against human HeLa cells assessed as reduction in cell viability after 72 hrs by MTT assay; format: functional, cell-based
HCT-15 = test: Antiproliferative activity against human HCT15 cells assessed as reduction in cell viability after 72 hrs by MTT assay; format: functional, cell-based; conditions: HCT-15, 72 h
MDA-MB-231 = test: Antiproliferative activity against human MDA-MB-231 cells assessed as reduction in cell viability after 72 hrs by MTT assay; format: functional, cell-based; conditions: MDA-MB-231, 72 h
HUVEC = test: Cytotoxicity against HUVEC assessed as reduction in cell viability after 72 hrs by MTT assay; format: cell-based; conditions: Homo sapiens

Compound | IC50 (HT-29) [µM] | IC50 (MDA-MB-468) [µM] | IC50 (T47D) [µM] | IC50 (HeLa) [µM] | IC50 (HCT-15) [µM] | IC50 (MDA-MB-231) [µM] | IC50 (HUVEC) [µM]
COc1cc(-c2nccn2C)cc(OC)c1OC | > 100 | > 100 | > 100 | > 100 | > 100 | > 100 | 
COc1ccc(C(=O)Oc2cc(OC)c(OC)c(OC)c2)cc1N | > 100 | > 100 | > 100 | > 100 | > 100 | > 100 | 
COc1ccc(C(=O)Nc2cc(OC)c(OC)c(OC)c2)cc1[N+](=O)[O-] | 8.3 | 3 | 6 | 3.7 | 2 | 5.7 | 
COc1cccc(-n2ccnc2-c2cc(OC)c(OC)c(OC)c2)c1 | 18.9 | 10.4 | 32.2 | 11 | 17.1 | 18.3 | 
COc1ccc(-n2ccnc2-c2cc(OC)c(OC)c(OC)c2)cc1[N+](=O)[O-] | 0.6 | 0.1 | 10 | 2.5 | 1 | 7.5 | 
COc1cc(-c2nccn2-c2ccc(Br)cc2)cc(OC)c1OC | 7.7 | 2.7 | 24.6 | 3.3 | 11.7 | 8.4 | > 100
COc1cc(OC)cc(-n2ccnc2-c2cc(OC)c(OC)c(OC)c2)c1 | 74.5 | 57.5 | > 100 | 41.4 | > 100 | 45.2 | 
COc1ccc(NC(=O)c2cc(OC)c(OC)c(OC)c2)cc1[N+](=O)[O-] | 9.7 | 2.9 | 34.5 | 38.7 | 17.6 | 31 | 
COc1cc(-c2nccn2-c2cccc([N+](=O)[O-])c2)cc(OC)c1OC | > 100 | 7.2 | 17.9 | 6.7 | > 100 | > 100 | > 100
COc1ccc(C(=O)Oc2cc(OC)c(OC)c(OC)c2)cc1[N+](=O)[O-] | > 100 | 35.2 | 29.6 | > 100 | > 100 | > 100 | 
COc1cc(-c2nccn2CC(C)C)cc(OC)c1OC | > 100 | > 100 | > 100 | > 100 | > 100 | > 100 | 
COc1cc(-c2nccn2-c2ccc(F)cc2)cc(OC)c1OC | 29.3 | 62.2 | > 100 | 17.5 | 68.6 | 38.4 | 
COc1ccc(OC(=O)c2cc(OC)c(OC)c(OC)c2)cc1N | > 100 | > 100 | > 100 | > 100 | > 100 | > 100 | 
COc1cc(-c2nccn2C(C)C)cc(OC)c1OC | > 100 | > 100 | > 100 | > 100 | > 100 | > 100 | 
CCCn1ccnc1-c1cc(OC)c(OC)c(OC)c1 | > 100 | > 100 | > 100 | > 100 | > 100 | > 100 | 
COc1cc(-c2nccn2-c2ccc(C)cc2)cc(OC)c1OC | 1.6 | 0.4 | 20.5 | 0.7 | 0.8 | 4.1 | > 100

Compound | IC50 (HT-29) [µM] | IC50 (MDA-MB-468) [µM] | IC50 (T47D) [µM] | IC50 (HeLa) [µM] | IC50 (HCT-15) [µM] | IC50 (MDA-MB-231) [µM] | IC50 (HUVEC) [µM]
COc1ccc(-n2ccnc2-c2cc(OC)c(OC)c(OC)c2)cc1 | 13.1 | 0.5 | 1.4 | 1.2 | 1.3 | 2.7 | > 50
COc1cc(-c2nccn2Cc2ccccc2)cc(OC)c1OC | > 100 | > 100 | > 100 | > 100 | > 100 | > 100 | 
CCCCCn1ccnc1-c1cc(OC)c(OC)c(OC)c1 | 60.1 | 57.9 | 64.4 | > 100 | > 100 | 34.2 | 
COc1cc(-c2nccn2S(=O)(=O)c2ccc(C)cc2)cc(OC)c1OC | > 100 | > 100 | > 100 | > 100 | > 100 | > 100 | 
COc1cc(-c2nccn2-c2ccc3sccc3c2)cc(OC)c1OC | 1.5 | 0.4 | 17 | 1.4 | 3.3 | 16.8 | 
CCCCn1ccnc1-c1cc(OC)c(OC)c(OC)c1 | > 100 | 44.1 | > 100 | > 100 | > 100 | 70.4 | 
COc1cc(-c2nccn2S(=O)(=O)c2ccccc2)cc(OC)c1OC | > 100 | > 100 | > 100 | > 100 | > 100 | > 100 | 
COc1cc(-c2nccn2-c2cccc3ccccc23)cc(OC)c1OC | 14.7 | 6.2 | 15 | 31 | 25.4 | 8 | 
COc1ccc(C(=O)Nc2cc(OC)c(OC)c(OC)c2)cc1N | > 100 | > 100 | > 100 | > 100 | > 100 | 94.2 | 
COc1ccc(-n2ccnc2-c2cc(OC)c(OC)c(OC)c2)cc1O | 16.9 | 0.3 | 53.1 | 0.1 | 0.2 | 1.9 | 54.2
COc1ccc(OC(=O)c2cc(OC)c(OC)c(OC)c2)cc1[N+](=O)[O-] | > 100 | > 100 | > 100 | > 100 | > 100 | > 100 | 
COc1ccc(NC(=O)c2cc(OC)c(OC)c(OC)c2)cc1N | 1.2 | 2 | 50.4 | 4.1 | 6.5 | 18.6 | 
COc1cc(-c2nccn2-c2ccc3[nH]ccc3c2)cc(OC)c1OC | 9.1 | 2.3 | 2.1 | 4.4 | 4.6 | 4.3 | 46.7
COc1cc(-c2nccn2-c2cccc(C)c2)cc(OC)c1OC | 14.6 | 22.6 | 29.3 | 1.9 | 1.6 | 11.7 | > 100
CCn1ccnc1-c1cc(OC)c(OC)c(OC)c1 | > 100 | > 100 | > 100 | > 100 | > 100 | > 100 | 
COc1cc(-c2nccn2-c2ccc3cc[nH]c3c2)cc(OC)c1OC | 3.6 | 1.7 | 18 | 4.8 | 4 | 7.5 | 40
